Experimental data from patent US11149062B2, “HDAC inhibitors and methods of treatment using the same” (UWM Research Foundation, Inc., priority 2015, dated 2021).

How the values were obtained:
Recombinant human HDAC1 = biological target: T1, Recombinant human HDAC1 (Homo sapiens, UniProt Q13547); assay: HDAC-Glo I/II assay, HDAC1; type: biochemical; conditions: for IC50: Class I HDAC, compounds reduced by TCEP prior to assay, read-out: IC50 of HDAC1; for Class I selectivity Ratio HDAC 1/HDAC8 / Class I vs. Class IIa Ratio HDAC 1/HDAC6: ratio of IC50 values
T1 construct: purchased BPS Bioscience Inc
T1 sequence (Q13547 whole entry): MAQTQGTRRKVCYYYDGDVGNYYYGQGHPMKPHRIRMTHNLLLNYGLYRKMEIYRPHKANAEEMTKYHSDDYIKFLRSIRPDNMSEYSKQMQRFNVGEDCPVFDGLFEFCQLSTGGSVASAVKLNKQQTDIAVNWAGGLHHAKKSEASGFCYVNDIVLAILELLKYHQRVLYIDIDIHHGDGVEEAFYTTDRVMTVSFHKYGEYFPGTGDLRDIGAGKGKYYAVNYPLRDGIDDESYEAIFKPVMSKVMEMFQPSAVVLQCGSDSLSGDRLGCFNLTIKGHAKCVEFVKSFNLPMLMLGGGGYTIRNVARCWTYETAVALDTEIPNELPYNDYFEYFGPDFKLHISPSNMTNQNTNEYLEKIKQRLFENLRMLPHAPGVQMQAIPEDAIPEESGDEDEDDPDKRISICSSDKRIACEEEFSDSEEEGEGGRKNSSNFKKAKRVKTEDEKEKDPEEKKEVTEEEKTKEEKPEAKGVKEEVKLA
Description: (§1) The purified compounds of all fragments and natural product derivatives were evaluated for inhibitory effects on three different classes of HDAC proteins (class I, IIa, and IIb). […] All activity was determined by using a fluorescence-based in vitro assay. Class I HDAC proteins that were evaluated were HDAC1, HDAC2, HDAC3, HDAC8, HDAC4, and HDAC6. Class IIa HDAC protein were HDAC4 and the Class IIb HDAC protein were HDAC6.
(§2) HDAC-Glo™ I/II Assay and Screening System (Promega) was used to determine the HDAC inhibitory activity. Recombinant human HDAC1, HDAC2, HDAC3, HDAC4, HDAC6 and HDAC8 were purchased from BPS Bioscience Inc. The inhibitory activities of the test compounds against recombinant HDAC were performed according to reagent suppliers' protocols.
(§3) All test compounds were firstly dissolved in DMSO to make 10 mM stock solution. A certain amount of stock solution was diluted to 1 mM by DMSO and then reduced by tris(2-carboxyethyl)phosphine hydrochloride (TCEP) in a molar ration of 1:1.5 for 20 min at ambient temperature prior to being assayed. After reduction, a series of fivefold dilutions of each reduced compound were prepared with HDAC-Glo buffer and 25 μL of each dilution was added into a well on a 96-well plate. HDAC enzymes were diluted to the desired concentrations with HDAC-Glo buffer and 25 μL of each diluted enzyme was dispensed into a well to mix with 25 μL of testing compound at room temperature for 30-60 seconds. After the reaction mixture had been incubated at room temperature for 1 hour, 50 μL of HDAC-Glo reagent was added to each reaction well and mixed up for 30-60 seconds. Finally, the plate was incubated at room temperature for an additional 30 minutes before the luminescence was measured on a Synergy HT plate reader (Bio-Tek). The luminescence intensity data were analyzed using GraphPad Prism 5 (GraphPad Software). In the absence of any test compound, the luminescence intensity (I100) in each data set was defined as 100% activity. In the absence of both of HDAC enzymes and test compound, the luminescence intensity (I0) in each data set was defined as 0% activity. The relative activity (%) in the presence of each compound was calculated according to the following equation: % activity=(I−I0)/(I100−I0), where I=the luminescence intensity if a compound is present in the reaction. Experiments were performed in triplicate and the calculated mean values were used for plotting.

Recombinant human HDAC2 = biological target: T2, Recombinant human HDAC2 (Homo sapiens, UniProt Q92769); assay: HDAC-Glo I/II assay, HDAC2; type: biochemical; conditions: Class I HDAC; compounds reduced by TCEP prior to assay
T2 construct: purchased BPS Bioscience Inc
T2 sequence (Q92769 whole entry): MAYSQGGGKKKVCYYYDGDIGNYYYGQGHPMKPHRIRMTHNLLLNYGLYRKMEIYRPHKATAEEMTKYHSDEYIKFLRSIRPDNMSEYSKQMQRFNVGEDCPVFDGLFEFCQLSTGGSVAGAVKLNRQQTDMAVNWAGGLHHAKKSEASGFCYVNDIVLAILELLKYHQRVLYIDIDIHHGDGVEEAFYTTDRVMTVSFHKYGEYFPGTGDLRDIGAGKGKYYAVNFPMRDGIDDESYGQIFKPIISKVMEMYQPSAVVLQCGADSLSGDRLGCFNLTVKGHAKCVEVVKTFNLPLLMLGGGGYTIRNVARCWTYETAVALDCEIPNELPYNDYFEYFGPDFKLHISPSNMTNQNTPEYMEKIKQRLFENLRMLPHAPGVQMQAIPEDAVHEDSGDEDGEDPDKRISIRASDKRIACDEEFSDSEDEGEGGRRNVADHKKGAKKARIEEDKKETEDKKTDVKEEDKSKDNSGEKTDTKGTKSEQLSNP
Description: as §1, §2, §3

Recombinant human HDAC3 = biological target: T3, Recombinant human HDAC3 (Homo sapiens, UniProt O15379); assay: HDAC-Glo I/II assay, HDAC3; type: biochemical; conditions: Class I HDAC; compounds reduced by TCEP prior to assay
T3 construct: purchased BPS Bioscience Inc
T3 sequence (O15379 whole entry): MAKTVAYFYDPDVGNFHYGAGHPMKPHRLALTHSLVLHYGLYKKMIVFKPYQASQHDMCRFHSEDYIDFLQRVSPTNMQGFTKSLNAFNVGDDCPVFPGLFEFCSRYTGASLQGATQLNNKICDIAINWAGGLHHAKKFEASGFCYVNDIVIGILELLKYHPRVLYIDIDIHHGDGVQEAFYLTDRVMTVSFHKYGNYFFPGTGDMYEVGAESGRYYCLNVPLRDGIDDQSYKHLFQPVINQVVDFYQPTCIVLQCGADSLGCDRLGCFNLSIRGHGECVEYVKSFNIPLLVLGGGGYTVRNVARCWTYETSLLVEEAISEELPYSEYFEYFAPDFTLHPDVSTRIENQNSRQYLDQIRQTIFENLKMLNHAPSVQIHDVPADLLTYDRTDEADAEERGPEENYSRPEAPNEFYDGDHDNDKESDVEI
T3 sequence (Q9Y618 395-489 partner limits assumed): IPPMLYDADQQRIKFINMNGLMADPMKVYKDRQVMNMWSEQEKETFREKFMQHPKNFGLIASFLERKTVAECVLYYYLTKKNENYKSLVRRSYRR
Description: as §1, §2, §3

Recombinant human HDAC8 = biological target: T4, Recombinant human HDAC8 (Homo sapiens, UniProt Q9BY41); assay: HDAC-Glo I/II assay, HDAC8; type: biochemical; conditions: Class I HDAC; compounds reduced by TCEP prior to assay
T4 construct: purchased BPS Bioscience Inc
T4 sequence (Q9BY41 1-377): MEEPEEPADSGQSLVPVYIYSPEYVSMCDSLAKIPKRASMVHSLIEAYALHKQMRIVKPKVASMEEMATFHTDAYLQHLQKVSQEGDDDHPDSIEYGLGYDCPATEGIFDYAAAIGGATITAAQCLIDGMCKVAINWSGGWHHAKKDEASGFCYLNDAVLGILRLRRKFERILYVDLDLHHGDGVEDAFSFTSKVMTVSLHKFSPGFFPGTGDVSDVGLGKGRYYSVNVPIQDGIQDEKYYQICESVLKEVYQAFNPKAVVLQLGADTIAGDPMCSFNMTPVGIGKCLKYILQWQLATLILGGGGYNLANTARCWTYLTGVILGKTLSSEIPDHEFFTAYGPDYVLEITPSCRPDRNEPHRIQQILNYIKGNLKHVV
Description: as §1, §2, §3

Recombinant human HDAC4 = biological target: T5, Recombinant human HDAC4 (Homo sapiens, UniProt P56524); assay: HDAC-Glo I/II assay, HDAC4; type: biochemical; conditions: Class IIa HDAC; compounds reduced by TCEP prior to assay; read-out: IC50 of HDAC4
T5 construct: purchased BPS Bioscience Inc
T5 sequence (P56524 whole entry): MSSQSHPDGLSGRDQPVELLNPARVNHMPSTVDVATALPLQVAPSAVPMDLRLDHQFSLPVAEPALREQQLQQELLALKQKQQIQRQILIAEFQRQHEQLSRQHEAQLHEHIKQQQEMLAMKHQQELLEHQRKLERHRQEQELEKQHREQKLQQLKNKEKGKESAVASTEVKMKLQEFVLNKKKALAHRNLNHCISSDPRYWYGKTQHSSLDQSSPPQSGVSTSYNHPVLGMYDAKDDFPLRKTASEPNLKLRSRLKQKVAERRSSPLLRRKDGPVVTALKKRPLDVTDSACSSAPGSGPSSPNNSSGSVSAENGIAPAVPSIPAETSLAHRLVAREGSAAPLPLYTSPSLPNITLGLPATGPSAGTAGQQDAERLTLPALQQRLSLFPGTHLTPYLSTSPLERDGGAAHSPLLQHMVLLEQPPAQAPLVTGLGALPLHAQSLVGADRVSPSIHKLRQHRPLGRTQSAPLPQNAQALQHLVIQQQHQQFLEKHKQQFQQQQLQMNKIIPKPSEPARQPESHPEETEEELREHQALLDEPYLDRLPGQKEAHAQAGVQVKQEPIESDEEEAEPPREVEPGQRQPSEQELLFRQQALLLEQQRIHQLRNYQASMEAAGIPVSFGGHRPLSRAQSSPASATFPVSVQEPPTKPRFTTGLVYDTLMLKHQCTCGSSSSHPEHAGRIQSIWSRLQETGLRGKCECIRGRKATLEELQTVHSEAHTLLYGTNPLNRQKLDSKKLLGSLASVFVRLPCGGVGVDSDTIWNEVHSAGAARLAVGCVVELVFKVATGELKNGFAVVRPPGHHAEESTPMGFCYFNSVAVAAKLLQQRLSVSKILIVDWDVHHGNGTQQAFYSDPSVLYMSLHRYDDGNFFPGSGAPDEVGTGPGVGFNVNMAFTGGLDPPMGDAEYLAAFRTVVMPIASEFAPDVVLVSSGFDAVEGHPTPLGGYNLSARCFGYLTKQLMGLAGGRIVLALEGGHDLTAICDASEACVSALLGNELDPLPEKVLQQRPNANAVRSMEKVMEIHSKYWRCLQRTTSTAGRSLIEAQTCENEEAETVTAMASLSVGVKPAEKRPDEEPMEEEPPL
Description: as §1, §2, §3

HCT-116 (colon cancer) = assay: MTT antiproliferative assay, HCT-116; type: cell-based; conditions: Homo sapiens, HCT-116; MTT, 48 h; read-out: Antiproliferative Activity GI50, Colon HCT-116
Description: (§4) Briefly, the tumor cells (1×10^4 cells/well) were seeded in 96-well microtiter plates and incubated for 24 h at 37° C. Following incubation, the media was replaced with fresh media containing the above compounds at concentrations ranging from 1 μM to 1 pM diluted in DMSO and incubated for an additional 48 h. Drugs were run in duplicate or triplicate and control cells received fresh media with DMSO concentration equivalent to the treatment groups. […] After aspirating the culture medium, 200 μL of DMSO was added to dissolve the precipitate and the resulting solution was measured for absorbance at 570 nm with a reference wavelength of 690 nm using a microplate reader (Infinite M200 Pro TECAN).

HeLa (cervical cancer) = assay: MTT antiproliferative assay, HeLa; type: cell-based; conditions: Homo sapiens, MTT, 48 h, read-out: Antiproliferative Activity GI50, Cervical HeLa
Description: as §4

RFX393 (renal) = assay: MTT antiproliferative assay, RFX393; type: cell-based; conditions: MTT, 48 h; read-out: Antiproliferative Activity GI50, Renal RFX393
Description: as §4

SKOV-3 (ovarian) = assay: MTT antiproliferative assay, SKOV-3; type: cell-based; conditions: Homo sapiens, SK-OV-3; MTT, 48 h; read-out: Antiproliferative Activity GI50, Ovarian SKOV-3
Description: as §4

DU-145 (prostate cancer) = assay: MTT antiproliferative assay, DU-145; type: cell-based; conditions: Homo sapiens, DU-145; MTT, 48 h; read-out: Antiproliferative Activity GI50, Prostate DU-145
Description: as §4

[1] = test system: MDA-MB-231 (breast cancer); assay: MTT antiproliferative assay, MDA-MB-231; type: cell-based; conditions: Homo sapiens, MDA-MB-231; MTT, 48 h; read-out: Antiproliferative Activity GI50, Breast MDA-MB-231
Description: as §4

COLO-205 (colon cancer) = assay: MTT antiproliferative assay, COLO-205; type: cell-based; conditions: Homo sapiens, COLO 205; MTT, 48 h; read-out: Antiproliferative Activity GI50, Colon COLO-205
Description: as §4

in vivo = conditions: BALB/c, mouse, in vivo, ip
Text: BALB/c mice were purchased from The Jackson Laboratory (Bar Harbor, Me.) and used between 7 and 10 weeks of age. Mice were housed in a conventional animal vivarium and were given free access to food and water. All studies and procedures were approved by the Animal Care and Use Committee of the University of Wisconsin, Milwaukee.
Each animal was initially weighed using a digital scale and then intraperitoneally (IP) injected with the compounds (listed in Table 2). A single mouse was given a single IP dose of 200 mg/kg, body weight, a second mouse received a dose of 100 mg/kg and a third mouse received a single dose of 50 mg/kg. The mice were observed and weighed every other day for a period of 2 weeks. They were euthanized if they lost more than 20% of their body weight or if there were other signs of significant toxicity. […] This process was repeated until a tolerated dose was found, and the MTD value was determined.
To determine the MTD in vivo, the compounds listed above were injected intraperitoneally into BALB/c mice and morbidity and mortality were monitored over two weeks.

[2] = 10 mg/mL cpd in 20% DMSO/saline

SMILES	IC50 (Recombinant human HDAC1) [nM]	Class I selectivity Ratio HDAC 1/HDAC8 (Recombinant human HDAC1)	Class I vs. Class IIa Ratio HDAC 1/HDAC6 (Recombinant human HDAC1)	IC50 (Recombinant human HDAC2) [nM]	IC50 (Recombinant human HDAC3) [nM]	IC50 (Recombinant human HDAC8) [nM]	IC50 (Recombinant human HDAC4) [nM]	GI50 (HCT-116 (colon cancer)) [nM]	GI50 (HeLa (cervical cancer)) [nM]	GI50 (RFX393 (renal)) [nM]	GI50 (SKOV-3 (ovarian)) [nM]	GI50 (DU-145 (prostate cancer)) [nM]	GI50 [1] [nM]	GI50 (COLO-205 (colon cancer)) [nM]	MTD at 2 weeks (in vivo) [mg/kg]	Solubility [2]
CCC(C)[C@H]1NC(=O)[C@H]2CSSCC/C=C/[C@H](CC(=O)N[C@H](CCSC)C(=O)N2)OC(=O)C[C@@H]1OC(=O)c1ccccc1 (stereo partly shown) [TDC1]	10.9	0.00252	0.0020	51	640	3670	~500000	24.7	225	35.1	30	80	40	70	50	Not soluble
CCC(C)[C@H]1NC(=O)[C@H]2CSSCC/C=C/[C@H](CC(=O)N[C@H](CCSC)C(=O)N2)OC(=O)C[C@@H]1OCCC=O (stereo partly shown) [TDC2]	9.6	0.00096	0.0064	37	701	4330	135000	56	141	51					12.5	Not soluble
CCC(C)[C@H]1NC(=O)[C@H]2CSSCC/C=C/[C@H](CC(=O)N[C@H](CCSC)C(=O)N2)OC(=O)C[C@@H]1OC(C)=O (stereo partly shown) [TDC3]	2.7	0.00006	0.0020	44.2	245	10000	40500	120	332	107					> 200	Not soluble
